One block for each molecule: values may come before it. Activity calls are given as the source filed them.
Key:
Cytochrome P450 1A2 = target: T1, Cytochrome P450 1A2 (Homo sapiens, UniProt P05177);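 note: PubChem cytochrome P450 panel assay, CYP1A2 panel member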
T1 sequence (P05177 whole entry): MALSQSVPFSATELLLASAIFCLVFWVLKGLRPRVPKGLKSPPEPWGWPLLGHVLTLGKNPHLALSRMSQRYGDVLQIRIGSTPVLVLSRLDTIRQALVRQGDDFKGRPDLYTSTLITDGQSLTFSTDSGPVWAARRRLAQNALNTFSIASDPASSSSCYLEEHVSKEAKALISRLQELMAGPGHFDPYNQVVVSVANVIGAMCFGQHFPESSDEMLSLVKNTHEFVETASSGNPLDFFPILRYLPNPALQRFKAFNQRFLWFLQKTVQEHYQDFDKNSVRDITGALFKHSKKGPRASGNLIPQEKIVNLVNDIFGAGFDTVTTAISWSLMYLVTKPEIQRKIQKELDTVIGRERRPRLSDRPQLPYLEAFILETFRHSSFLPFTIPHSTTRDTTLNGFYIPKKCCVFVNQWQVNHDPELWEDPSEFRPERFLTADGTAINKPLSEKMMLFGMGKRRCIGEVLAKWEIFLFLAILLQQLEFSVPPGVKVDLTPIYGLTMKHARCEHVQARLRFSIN

Cytochrome P450 2C19 = Cytochrome P450 2C19 (Homo sapiens, UniProt P33261); assay: Cytochrome panel assay with activity outcomes. Panel member name: p450-cyp2c19 Compounds with AC50 equal or less than 10 uM are considered active; type: functional; settings: read-out: AC50
Sequence of Cytochrome P450 2C19 (P33261 whole entry): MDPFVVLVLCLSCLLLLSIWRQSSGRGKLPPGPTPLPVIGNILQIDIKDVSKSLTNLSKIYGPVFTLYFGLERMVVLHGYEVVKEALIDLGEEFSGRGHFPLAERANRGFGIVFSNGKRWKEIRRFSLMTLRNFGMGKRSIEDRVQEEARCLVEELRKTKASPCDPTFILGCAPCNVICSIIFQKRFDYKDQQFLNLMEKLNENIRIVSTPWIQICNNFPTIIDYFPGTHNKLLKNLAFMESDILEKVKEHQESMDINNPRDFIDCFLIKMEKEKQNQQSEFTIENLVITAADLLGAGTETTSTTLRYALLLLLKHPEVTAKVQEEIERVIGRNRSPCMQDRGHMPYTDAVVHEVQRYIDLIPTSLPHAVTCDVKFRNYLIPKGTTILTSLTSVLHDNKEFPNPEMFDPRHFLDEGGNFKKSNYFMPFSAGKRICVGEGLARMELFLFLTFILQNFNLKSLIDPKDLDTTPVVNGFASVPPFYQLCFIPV

Cytochrome P450 2D6 = Cytochrome P450 2D6 (Homo sapiens, UniProt P10635);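 note: CYP2D6 member of a cytochrome P450 panel assay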
Sequence of Cytochrome P450 2D6 (P10635 whole entry): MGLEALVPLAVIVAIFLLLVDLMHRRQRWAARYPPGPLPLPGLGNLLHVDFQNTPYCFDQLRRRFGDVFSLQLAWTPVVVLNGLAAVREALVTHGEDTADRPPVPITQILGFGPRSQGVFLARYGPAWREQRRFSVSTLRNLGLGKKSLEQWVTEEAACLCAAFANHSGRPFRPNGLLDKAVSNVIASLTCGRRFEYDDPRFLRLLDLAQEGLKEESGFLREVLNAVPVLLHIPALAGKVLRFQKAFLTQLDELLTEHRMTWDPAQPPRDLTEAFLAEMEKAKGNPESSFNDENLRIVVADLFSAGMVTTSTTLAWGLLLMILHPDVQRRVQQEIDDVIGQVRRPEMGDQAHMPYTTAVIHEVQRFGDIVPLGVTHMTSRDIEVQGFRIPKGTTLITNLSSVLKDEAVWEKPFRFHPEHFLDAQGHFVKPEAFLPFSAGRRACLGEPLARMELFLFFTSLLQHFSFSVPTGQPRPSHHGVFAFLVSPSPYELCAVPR

[1] = target: T2, Calpain-2 catalytic subunit (Sus scrofa, UniProt P43367); assay: pig calpain II inhibitor potency, dose response, biochemical, fluorogenic peptide substrate (AID 1420); type: functional
T2 sequence (P43367 whole entry): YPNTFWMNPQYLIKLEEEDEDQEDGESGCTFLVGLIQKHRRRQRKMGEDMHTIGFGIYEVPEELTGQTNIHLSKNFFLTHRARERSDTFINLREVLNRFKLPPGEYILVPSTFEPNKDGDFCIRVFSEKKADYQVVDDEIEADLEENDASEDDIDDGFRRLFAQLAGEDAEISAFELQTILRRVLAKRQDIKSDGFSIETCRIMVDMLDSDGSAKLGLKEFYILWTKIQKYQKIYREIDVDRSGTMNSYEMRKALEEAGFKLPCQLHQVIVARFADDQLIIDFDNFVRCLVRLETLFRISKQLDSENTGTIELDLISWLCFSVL

[2] = target: T3, Heat shock factor protein 1 (Mus musculus, UniProt P38532); assay: inhibition of MG132-induced HSE-luciferase signal, confirmation, cell-based, NIH3T3, luminescence, dose retest (AID 2382); type: functional;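 note: NIH3T3 fibroblasts with HSF1-driven luciferase reporter stressed by proteasome inhibitor MG132; luminescence from HSF1-driven luciferase expression after 8 hours of MG132 stress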
T3 sequence (P38532 whole entry): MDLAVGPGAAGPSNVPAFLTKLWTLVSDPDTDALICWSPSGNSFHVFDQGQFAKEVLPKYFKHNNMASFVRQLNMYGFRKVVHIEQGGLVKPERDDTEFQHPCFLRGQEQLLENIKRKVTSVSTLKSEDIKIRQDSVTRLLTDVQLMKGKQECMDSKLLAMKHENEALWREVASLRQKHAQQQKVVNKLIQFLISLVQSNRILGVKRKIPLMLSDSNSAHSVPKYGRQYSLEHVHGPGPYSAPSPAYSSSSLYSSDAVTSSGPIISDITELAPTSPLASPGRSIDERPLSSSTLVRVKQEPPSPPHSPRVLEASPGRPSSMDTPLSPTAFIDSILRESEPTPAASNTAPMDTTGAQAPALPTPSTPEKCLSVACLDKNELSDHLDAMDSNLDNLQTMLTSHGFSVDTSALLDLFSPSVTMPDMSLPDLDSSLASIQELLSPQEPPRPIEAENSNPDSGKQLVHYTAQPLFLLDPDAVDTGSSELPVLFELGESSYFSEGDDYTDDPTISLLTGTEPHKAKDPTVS

[3] = target: T4, Polyadenylate-binding protein 1 (Homo sapiens, UniProt P11940); assay: PABP1 MLLE–PAM2 interaction inhibitors, dose response, miRNA deadenylation inhibitor project, biochemical, fluorescence polarization, Cy5-PAM2 peptide, secondary (AID 602260); type: functional; settings: read-out: IC50_Mean
T4 sequence (P11940 whole entry): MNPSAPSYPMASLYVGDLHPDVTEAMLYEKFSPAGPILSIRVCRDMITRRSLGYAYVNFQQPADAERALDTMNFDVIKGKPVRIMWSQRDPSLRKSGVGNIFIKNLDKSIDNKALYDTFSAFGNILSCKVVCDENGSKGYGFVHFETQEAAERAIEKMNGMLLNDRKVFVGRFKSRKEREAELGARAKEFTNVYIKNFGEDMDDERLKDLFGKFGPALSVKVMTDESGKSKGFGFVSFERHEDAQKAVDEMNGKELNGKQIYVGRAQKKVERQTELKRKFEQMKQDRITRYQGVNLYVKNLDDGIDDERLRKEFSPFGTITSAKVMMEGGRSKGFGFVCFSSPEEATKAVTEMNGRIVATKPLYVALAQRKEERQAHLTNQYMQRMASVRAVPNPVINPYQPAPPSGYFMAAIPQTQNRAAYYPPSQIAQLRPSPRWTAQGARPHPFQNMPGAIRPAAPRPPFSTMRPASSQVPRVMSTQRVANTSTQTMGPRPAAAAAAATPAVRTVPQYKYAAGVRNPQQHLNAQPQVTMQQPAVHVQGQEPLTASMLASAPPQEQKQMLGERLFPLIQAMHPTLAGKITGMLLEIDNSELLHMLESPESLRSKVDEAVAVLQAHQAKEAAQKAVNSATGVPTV

[4] = target: T4, Polyadenylate-binding protein 1; assay: PABP1 MLLE–PAM2 binding inhibitor potency, dose response, biochemical, fluorescence polarization, FITC-PAM2 peptide (AID 602259); type: functional; settings: read-out: IC50_Mean
Cytochrome P450 2C9 = Cytochrome P450 2C9 (Homo sapiens, UniProt P11712)
Sequence of Cytochrome P450 2C9 (P11712 whole entry): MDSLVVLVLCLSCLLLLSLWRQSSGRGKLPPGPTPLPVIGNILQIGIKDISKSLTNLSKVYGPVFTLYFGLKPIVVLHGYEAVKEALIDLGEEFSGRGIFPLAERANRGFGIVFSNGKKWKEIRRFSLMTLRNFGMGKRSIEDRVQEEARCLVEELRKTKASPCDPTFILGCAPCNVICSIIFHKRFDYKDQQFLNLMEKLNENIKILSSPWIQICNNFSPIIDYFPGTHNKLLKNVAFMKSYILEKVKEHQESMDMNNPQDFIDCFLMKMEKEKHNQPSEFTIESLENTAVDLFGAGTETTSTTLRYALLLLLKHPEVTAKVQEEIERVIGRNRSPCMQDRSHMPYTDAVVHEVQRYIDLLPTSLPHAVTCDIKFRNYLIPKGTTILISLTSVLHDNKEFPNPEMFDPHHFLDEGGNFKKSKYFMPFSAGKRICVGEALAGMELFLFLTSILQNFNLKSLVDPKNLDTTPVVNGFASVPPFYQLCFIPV

Cytochrome P450 3A4 = Cytochrome P450 3A4 (Homo sapiens, UniProt P08684);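 note: CYP3A4 tested as one member of a cytochrome P450 panel screen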
Sequence of Cytochrome P450 3A4 (P08684 whole entry): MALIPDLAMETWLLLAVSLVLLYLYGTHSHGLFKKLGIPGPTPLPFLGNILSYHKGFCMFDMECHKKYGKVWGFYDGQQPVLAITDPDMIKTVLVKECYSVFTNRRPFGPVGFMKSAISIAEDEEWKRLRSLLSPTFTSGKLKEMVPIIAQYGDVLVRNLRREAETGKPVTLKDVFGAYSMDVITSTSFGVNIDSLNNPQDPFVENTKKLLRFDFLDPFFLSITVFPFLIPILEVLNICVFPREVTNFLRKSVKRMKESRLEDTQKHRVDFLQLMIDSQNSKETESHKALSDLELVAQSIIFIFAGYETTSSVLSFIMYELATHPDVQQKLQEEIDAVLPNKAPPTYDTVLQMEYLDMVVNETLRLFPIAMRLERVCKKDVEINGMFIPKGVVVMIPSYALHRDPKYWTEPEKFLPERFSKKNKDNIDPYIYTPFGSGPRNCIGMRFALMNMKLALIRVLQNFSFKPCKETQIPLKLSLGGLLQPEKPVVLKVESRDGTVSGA

[5] = C. albicans growth with fluconazole, confirmation, fluorescence, retest (AID 2467); type: functional, cell-based
[6] = NIH-3T3 fibroblast cytotoxicity, dose response, cytotoxicity control, cell-based, fluorescence, Alamar Blue, secondary assay (AID 2327); type: functional;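 note: NIH-3T3 mouse fibroblasts cultured with fluconazole at 8 µg/mL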
[7] = target: T5, RNA-binding protein pos-1 (Caenorhabditis elegans, UniProt G5EF15); assay: inhibitors of POS-1/mex-3 RNA binding, dose response, biochemical, fluorescence polarization (AID 1964);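 note: purified POS-1 fused to maltose binding protein made in E. coli; potency of compounds blocking POS-1 binding to fluorescent RNA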
T5 sequence (G5EF15 whole entry): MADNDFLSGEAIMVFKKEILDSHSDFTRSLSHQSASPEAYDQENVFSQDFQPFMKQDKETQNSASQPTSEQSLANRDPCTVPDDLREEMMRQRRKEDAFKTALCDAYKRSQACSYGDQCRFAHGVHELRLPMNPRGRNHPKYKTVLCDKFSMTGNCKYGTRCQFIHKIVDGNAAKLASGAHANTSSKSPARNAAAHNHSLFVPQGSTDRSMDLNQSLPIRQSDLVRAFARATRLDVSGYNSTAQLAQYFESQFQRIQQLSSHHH

H9c2 = assay: cells; type: functional, cell-based; settings: Rattus norvegicus, H9c2, Myocardium;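 note: confirmatory concentration-response retest of ultra-high-throughput screening hits for modulation of myocardial damage; cell death induced by hydrogen peroxide oxidative stress; compound pretreatment for 60 min then peroxide exposure for 2 h; potency is for protecting the cells against peroxide damage rather than for killing them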
[8] = target: T6, Zinc finger protein mex-5 (Caenorhabditis elegans, UniProt Q9XUB2); assay: MEX-5/TCR-2 RNA interaction inhibitors, dose response, biochemical, C. elegans, fluorescence polarization (AID 1960)
T6 sequence (Q9XUB2 whole entry): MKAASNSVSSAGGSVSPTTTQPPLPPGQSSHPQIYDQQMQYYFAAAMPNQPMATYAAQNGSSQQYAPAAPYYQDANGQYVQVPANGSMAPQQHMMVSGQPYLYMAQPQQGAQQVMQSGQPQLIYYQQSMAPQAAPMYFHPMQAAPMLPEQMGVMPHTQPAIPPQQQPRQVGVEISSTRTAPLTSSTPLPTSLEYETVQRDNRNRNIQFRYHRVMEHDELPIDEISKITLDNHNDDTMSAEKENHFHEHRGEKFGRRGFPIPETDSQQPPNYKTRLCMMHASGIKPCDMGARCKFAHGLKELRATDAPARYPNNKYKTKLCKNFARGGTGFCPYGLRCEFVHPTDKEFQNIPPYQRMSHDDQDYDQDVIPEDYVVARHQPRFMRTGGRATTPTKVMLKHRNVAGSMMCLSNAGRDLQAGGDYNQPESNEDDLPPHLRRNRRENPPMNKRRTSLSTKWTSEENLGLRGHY

[9] = Luminescence Cell-Based Dose Retest to Confirm Inhibitors of Cancer Stem Cells. [Related pubchem assays (depositor defined):AID2717, AID2721]; type: functional; settings: Homo sapiens
[10] = target: T7, Rac GTPase-activating protein 1 (Homo sapiens, UniProt Q9H0H5); assay: MgcRacGAP GTPase-activating activity inhibitors, confirmation, biochemical, ADP Hunter fluorescence, primary and confirmatory (AID 624330); type: functional
T7 sequence (Q9H0H5 whole entry): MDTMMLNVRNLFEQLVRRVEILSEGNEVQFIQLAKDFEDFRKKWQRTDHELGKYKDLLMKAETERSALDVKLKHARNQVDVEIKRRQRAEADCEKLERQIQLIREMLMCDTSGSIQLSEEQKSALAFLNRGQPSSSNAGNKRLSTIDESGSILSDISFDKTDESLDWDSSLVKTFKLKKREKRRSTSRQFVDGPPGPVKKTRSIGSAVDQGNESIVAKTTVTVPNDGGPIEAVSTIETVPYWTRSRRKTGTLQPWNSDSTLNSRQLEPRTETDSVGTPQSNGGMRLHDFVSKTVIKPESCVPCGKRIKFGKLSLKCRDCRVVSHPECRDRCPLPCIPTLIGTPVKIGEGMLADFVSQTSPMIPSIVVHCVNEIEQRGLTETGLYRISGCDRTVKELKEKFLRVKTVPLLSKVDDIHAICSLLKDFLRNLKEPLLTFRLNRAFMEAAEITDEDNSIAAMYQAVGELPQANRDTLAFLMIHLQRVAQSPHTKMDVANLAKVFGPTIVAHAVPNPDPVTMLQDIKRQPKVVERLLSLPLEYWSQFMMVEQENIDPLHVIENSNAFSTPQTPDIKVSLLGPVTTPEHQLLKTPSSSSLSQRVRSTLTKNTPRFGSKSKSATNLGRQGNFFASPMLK

- AC50 (Cytochrome P450 1A2): 0.398 µM (active)
- AC50 (Cytochrome P450 2C19): 15.8 µM (active)
- AC50 (Cytochrome P450 2D6): 15.8 µM (active)
Compound: c1ccc(CNc2nc(-c3cccnc3)nc3ccccc23)cc1

- IC50 [1]: 14.6 µM (not active)
Compound: NC(=O)CC(NC(=O)Cc1ccc(Br)cc1)c1ccc(NCC2CC2)c([N+](=O)[O-])c1 (stereo unspecified)

- AC50 (Cytochrome P450 1A2): 2 µM (inconclusive)
- AC50 (Cytochrome P450 2C19): 15.8 µM (inconclusive)
Compound: Cc1ccc(-c2nc3ccccc3o2)cc1NC(=O)Cc1cccs1

- EC50 [2]: > 195 µM (not active)
- IC50 [3]: > 66 µM (inactive)
- IC50 [4]: > 66 µM (inactive)
Compound: Cc1ccc(-c2nc3cnccn3c2Nc2c(C)cccc2C)o1

- AC50 (Cytochrome P450 2C9): 28.2 µM (inconclusive)
- AC50 (Cytochrome P450 1A2): 15.8 µM (inconclusive)
- AC50 (Cytochrome P450 3A4): 39.8 µM (inconclusive)
- AC50 (Cytochrome P450 2C19): 11.2 µM (inconclusive)
Compound: CC(=O)NCc1c(Cl)cccc1-n1cccc1

Compound: CCCNC(=O)c1ccc2c(O)c(O)c(-c3ccc(F)cc3)nc2c1
- EC50 [5]: > 38 µM (not active)
- EC50 [6]: > 150 µM (inactive)
- EC50 [7]: 7.74 µM (inconclusive)
- IC50 (H9c2): 14.1 µM (active)
- EC50 [8]: 4.47 µM (inconclusive)

- IC50 [1]: > 50 µM (not active)
Compound: O=C(c1ccc(Cl)cc1)c1oc2ccccc2c1CS(=O)(=O)c1ccccc1

- IC50 [1]: 3.34 µM (not active)
Compound: CCOC(=O)N1CCC2(CC1)C(C#N)=C(N)Oc1[nH]nc(CSc3ccc(C)cc3)c12

- IC50 [3]: > 66 µM (inactive)
- IC50 [4]: > 66 µM (inactive)
Compound: Cc1onc(-c2ccccc2)c1C(=O)NC(=S)NNC(=O)c1ccncc1

Compound: c1ccc2c(c1)-c1ccccc1C2N1C[C@H]2CC[C@H](CC2)C1
- AC50 (Cytochrome P450 1A2): 0.501 µM (inconclusive)

- AC50 (Cytochrome P450 1A2): 2.51 µM (inconclusive)
- AC50 (Cytochrome P450 2C19): 20 µM (inconclusive)
- AC50 (Cytochrome P450 2D6): 15.8 µM (inconclusive)
Compound: FC(F)(F)c1ccccc1-c1cncnc1NCCN1CCOCC1

- IC50 [1]: 14.5 µM (not active)
Compound: CCc1ccccc1N(C(C)=O)c1nc(CN=C=S)cs1

Compound: SC1=NC[C@H](Cc2ccccc2)N1CCCCC1CCCCC1
- AC50 [9]: 6.26 µM (active)
- IC50 [1]: 7.52 µM (not active)

- AC50 (Cytochrome P450 1A2): 39.8 µM (inconclusive)
- AC50 (Cytochrome P450 3A4): 14.1 µM (inconclusive)
- AC50 (Cytochrome P450 2D6): 17.8 µM (inconclusive)
Compound: Cc1ccc(CNC(=O)Cn2cncn2)cc1

- IC50 [3]: > 66 µM (inactive)
- IC50 [4]: > 66 µM (inactive)
Compound: Cc1ccc(Cl)cc1N1C(=O)CC(Sc2ncccn2)C1=O (stereo unspecified)

- IC50 [3]: > 66 µM (inactive)
- IC50 [4]: > 66 µM (inactive)
Compound: CC(C)c1ccc(N2C(=O)CC(Sc3ncccn3)C2=O)cc1 (stereo unspecified)

- IC50 [3]: > 66 µM (inactive)
- IC50 [4]: > 66 µM (inactive)
Compound: NS(=O)(=O)c1ccc(NC(S)=Nc2ccc(S(=O)(=O)N3CCCC3)cc2)cc1

- IC50 [3]: > 66 µM (inactive)
- IC50 [4]: > 66 µM (inactive)
Compound: CCCCN(C(=S)NC(=O)c1ccccc1)c1c(N)n(Cc2ccccc2)c(=O)[nH]c1=O

- IC50 [3]: > 66 µM (inactive)
- IC50 [4]: > 66 µM (inactive)
Compound: O=C(NC(=S)Nc1ccc(S(=O)(=O)Nc2nccs2)cc1)c1ccccc1

- AC50 (Cytochrome P450 1A2): 15.8 µM (inconclusive)
Compound: COC(=O)C1CCN(CC(=O)Nc2sc3c(c2C#N)CCC3)CC1

Compound: O=C(Nc1cccc(F)c1)N1CCCC2(CCN(C(=O)Oc3ccccc3)CC2)C1
- AC50 (Cytochrome P450 2C9): 39.8 µM (inconclusive)
- AC50 (Cytochrome P450 1A2): 10 µM (inconclusive)
- AC50 (Cytochrome P450 2C19): 25.1 µM (inconclusive)

- IC50 [3]: > 66 µM (inactive)
- IC50 [4]: > 66 µM (inactive)
Compound: O=C(O)c1ccc(Cl)c(NC(=S)NC(=O)c2ccccc2[N+](=O)[O-])c1

- IC50 [3]: > 66 µM (inactive)
- IC50 [4]: > 66 µM (inactive)
Compound: COc1ccc(N2C(=O)CC(SCCc3nc4ccccc4[nH]3)C2=O)cc1 (stereo unspecified)

- IC50 [3]: > 66 µM (inactive)
- IC50 [4]: 30.8 µM (inactive)
Compound: Cc1cc(O)cc(O)c1/C=N/NC(=O)c1ccc2c(c1)OCCO2

Compound: Oc1ccc(Br)cc1/C=N/c1ccc2[nH]ncc2c1
- IC50 (H9c2): 12.6 µM (active)
- IC50 [10]: 32.1 µM (active)

- AC50 (Cytochrome P450 1A2): 5.01 µM (inconclusive)
Compound: N=C(N)SCc1cc(Cl)cc(Cl)c1O

- AC50 (Cytochrome P450 2C9): 12.6 µM (inconclusive)
- AC50 (Cytochrome P450 1A2): 15.8 µM (inconclusive)
- AC50 (Cytochrome P450 3A4): 25.1 µM (inconclusive)
- AC50 (Cytochrome P450 2D6): 39.8 µM (inconclusive)
Compound: NCCCCNS(=O)(=O)c1cccc2c(Cl)cccc12

- IC50 [1]: 13.5 µM (not active)
Compound: C=C(C)CNC(=S)N/N=C/c1ccc(NC(C)=O)cc1

- IC50 [1]: 2.21 µM (not active)
Compound: COc1cc(/C=N/NC(=O)COc2cccc(F)c2)ccc1OS(=O)(=O)c1ccc(C)cc1

Reference: ChEMBL document CHEMBL1201862, “PubChem BioAssay data set” (2004)
